The test system of test [1] is plasmin (binding to and degradation of FITC-fibrinogen). Nature of the test: Plasmin-mediated fibrinogenolysis assay: fluorescence dequenching of FITC-fibrinogen. The class given is biochemical. As to the method: To illustrate plasmin-mediated fibrinogenolysis into degradation products, 10 nM of plasmin was mixed for about 5 seconds in the reaction buffer containing 250 nM FITC-fibrinogen. […] The action of plasmin on FITC-fibrinogen produced an immediate large increase in fluorescence intensity (dequenching) in a plasmin-dependent manner (FIG. 4). The detection limit has been found under routine conditions to be at least 10 picomolar plasmin.
In that competition, some plasmin was able to bind fibrinogen as indicated by the initial rate of dequenching.

Test [2] relates to fibrinogen (FITC-fibrinogen polymerized by thrombin). The conditions noted are these: 1 U/ml thrombin.
Procedure: Fibrinogen was labeled with FITC using a 0.1M sodium bicarbonate buffer. After stopping the reaction with hydroxylamine (0.15M final concentration), the FITC-fibrinogen was dialyzed extensively before storage. The buffer for the polymerization reaction comprised either 0.1M NaCl, 0.05M Tris-HCl, 5 mM CaCl2 ("buffer 1") or 0.3M NaCl, 0.05M Tris-HC1, 5 mM CaCl2 ("buffer 2"). Cuvettes were incubated with 10 μM bovine serum albumin for 30 minutes to minimize adsorption of substrate to the cuvette walls.
In a series of reactions to produce fibrinogen polymerization into fibrin fibers, thrombin (final concentrations ranging from 0.1 U/ml, 0.25 U/ml, 0.5 U/ml and 1 U/ml) was mixed for about 5 seconds in either buffer 1 or buffer 2 containing a dilute FITC-fibrinogen (<40 nM) solution. Polymerization was monitored by exciting the reaction mixture with blue light (488 nm) and monitoring the fluorescence emission at 515 nm using a fluorimeter.

For the compound `NCCCCCC(=O)O` [ε-amino caproic acid], in test [1] (addition of 10 mM ε-amino caproic acid during fibrinogenolysis), the “progression of fibrinogenolysis (cessation of dequenching)” value is on record as “immediately inhibited”. Further, the inhibition of dequenching entry in test [1] (excess ε-amino caproic acid added after plasmin-mediated fibrinogenolysis was initiated (FIG. 8)) is reported as “dose-dependent inhibition”. The dequenching rate result in test [1] (plasmin preincubated with 10 mM ε-amino caproic acid before addition of fluorescent-labeled fibrinogen (FIG. 7)) is “greatly reduced”.

Gly-Pro-Arg-Pro [GPRP]: the thrombin-induced quenching prevented result in test [2] (100 μM GPRP added before polymerization) is listed as “Over 80%”. Moreover, the “rate and extent of quenching associated with polymerization” value in test [2] (0.1, 10 and 100 μM GPRP) is reported as “reduced in a dose-dependent manner”.

(Values after patent US5786137A, “Method for assaying components in an enzyme-protein substrate system” (Research Foundation of State University of New York, priority 1996, dated 1998).)
